Converted amounts (≈) assume the structure as drawn. Like-named read-outs stand apart in the source and are kept apart here.
Experiments:
[1] = system: Aspergillus fumigatus strain IFM41944; experiment: Treatment of infection, protocol 1: mice infected with Aspergillus fumigatus, oral treatment, survival; assay type: in vivo; details: for ED50: Aspergillus fumigatus, IFM41944, ICR male mice, i.v. infection 1 × 10⁷ conidia, oral one hour after infection and following four days once a day, survival at 7th day, Litchfield-Wilcoxon, read-out: ED₅₀
Experimental: (§1) Mice infected with Aspergillus fumigatus were administered selected compounds of the invention orally and their therapeutic effect was measured. Stated specifically, ICR male mice (4-wk old) in groups each consisting of 10 animals were injected with Aspergillus fumigatus strain IFM41944 by injecting it into the tail vein at a concentration of 1 × 10⁷ conidia per animal. Each test compound was administered orally to the mice one hour after the infection and for the following four continuous days on a once-a-day basis. The number of mice that survived at the 7th day of the infection was counted (the day of infection was day "zero") and the ED₅₀ of each test compound was calculated by the Litchfield-Wilcoxon method to estimate its therapeutic effect.

[2] = Toxicity test, repeated oral administration to mice; assay type: in vivo; details: 4-wk old mice, 5 consecutive days, 100 mg/kg
Experimental: The four selected compounds of the invention (those prepared in Examples 1, 2, 9 and 30) were administered orally to 4-wk old mice for 5 consecutive days at a dose of 100 mg/kg.

[3] = Solubility (usefulness as injections); assay type: physicochemical
[4] = system: Aspergillus fumigatus strain IFM0063; experiment: Minimum Inhibitory Concentration (MIC), agar plate dilution method; assay type: cell-based; details: Sabouraud's dextrose agar, 30°C for 2 days, visual growth
Experimental: (§2) MIC measurements were conducted by an agar plate dilution method. Stated specifically, Aspergillus fumigatus strains IFM0063 and IFM4942 were cultured on a potato dextrose agar medium at 27°C for 10 days, and the growing conidia were suspended in a sterile physiological saline containing 0.05% Tween 80 to give a concentration of 10⁸ - 10⁹ conidia per ml. The suspension was conditioned in a Sabouraud's dextrose broth medium at a concentration of 10⁵ spores per ml and a 5-µl aliquot of the culture was inoculated into a drug-containing Sabouraud's dextrose agar medium and cultured at 30°C for 2 days. The growth of fungi was observed visually and the minimum concentration of the test drug that could inhibit the fungal growth was designated as its MIC.

[5] = system: Aspergillus fumigatus strain IFM4942; experiment: as above; assay type: cell-based; details: Sabouraud's dextrose agar, 30°C for 2 days, visual growth
Experimental: as §2

[6] = system: Candida albicans strain IFM40009; experiment: Treatment of infection, protocol 2: mice infected with Candida albicans, oral treatment, survival; assay type: in vivo; details: ICR male mice, i.v. infection 1 × 10⁶ cells, oral once after an hour of infection, survival at 7th day, Litchfield-Wilcoxon
Experimental: as §1, with “Candida albicans” for “Aspergillus fumigatus”, “IFM40009” for “IFM41944”, “10⁶ cells” for “10⁷ conidia”, “once after an” for “one”, “of infection.” for “after the infection and for the following four continuous days on a once-a-day basis.”

[7] = reported in prior art; cited from earlier work
[8] = system: Candida albicans strain IFM40009; experiment: Treatment of infection, protocol 3: cyclophosphamide-immunosuppressed mice infected with Candida albicans, oral treatment, survival; assay type: in vivo; details: ICR male mice immunosuppressed with cyclophosphamide 100 mg/kg i.p. twice, i.v. infection 1 × 10⁶ cells, oral once after an hour of infection, survival at 7th day, read-out: ED₅₀
Experimental: Experimentally prepared immunosuppressed mice were infected with Candida albicans; they were then administered selected compounds of the invention orally and the therapeutic effect of the compounds was measured.
Stated specifically, ICR male mice (4-wk old) in groups each consisting of 10 animals were administered cyclophosphamide intraperitoneally at a dose of 100 mg/kg; four days later, the mice were similarly administered cyclophosphamide intraperitoneally to be rendered experimentally immunosuppressed. Simultaneously with the second shot of cyclophosphamide, Candida albicans strain IFM40009 was administered to the tail vein of each animal at a concentration of 1 × 10⁶ cells per animal to induce infection. Each test compound was administered orally to the mice once after an hour of infection.
The number of mice that survived at the 7th day of the infection was counted (the day of infection was day "zero") and the ED₅₀ of each test compound was calculated by the Litchfield-Wilcoxon method to estimate its therapeutic effect.

[9] = Aspergillus fumigatus, IFM0063, 48 h, read-out: MIC
[10] = Aspergillus fumigatus, IFM4942, 48 h, read-out: MIC

Row | SMILES | MIC [4, 9] [µg/mL] | MIC [5, 10] [µg/mL] | ED50 [6] [mg/kg] | further results
1 | CC(C)C(=NOCn1cncn1)C1(C(O)(Cn2cncn2)c2ccc(F)cc2F)CC1 (centres unmarked) [Example 30, 1-[1-[1-(2,4-difluorophenyl)-1-hydroxy-2-(1H-1,2,4-triazol-1-yl)ethyl]cyclopropyl]-2-methyl-1-propanone O-[(1H-1,2,4-triazol-1-yl)methyl]oxime] |  |  |  | ED50 [1]: 43.4 mg/kg; evidence for abnormality [2]: no evidence for abnormality; solubility [3]: good enough solubility to be useful as injections
2 | CCON=C(C(C)C)C1(C(O)(Cn2cncn2)c2ccc(F)cc2F)CC1 (centres unmarked) [Example 38] | 12.5 (≈ 33 µM) | 12.5 (≈ 33 µM) |  | 
3 | CCC(C)n1ncn(-c2ccc(N3CCN(c4ccc(OCC5COC(Cn6cncn6)(c6ccc(Cl)cc6Cl)O5)cc4)CC3)cc2)c1=O (centres unmarked) [Itraconazole, itraconazole, reference compound] |  |  |  | ED50 [1]: > 100 mg/kg
4 | CCC(=NOCSC)C1(C(O)(Cn2cncn2)c2ccc(F)cc2F)CC1 (centres unmarked) [Example 53] | 1.56 (≈ 3.93 µM) | 3.13 (≈ 7.89 µM) | 13.5 | 
5 | CCCC(=NOC)C1(C(O)(Cn2cncn2)c2ccc(F)cc2F)CC1 (centres unmarked) [Example 9] | 6.25 (≈ 17.2 µM) | 6.25 (≈ 17.2 µM) |  | ED50 [1]: 20.2 mg/kg; evidence for abnormality [2]: no evidence for abnormality
6 | CCCC(=NOCOC)C1(C(O)(Cn2cncn2)c2ccc(F)cc2F)CC1 (centres unmarked) [Example 8] | 12.5 (≈ 31.7 µM) | 25 (≈ 63.4 µM) |  | ED50 [1]: 27.7 mg/kg
7 | CON=C(C(C)C)C1(C(O)(Cn2cncn2)c2ccc(F)cc2F)CC1 (single isomer, unassigned; (-)) [Example 6, (-)-1-[1-[1-(2,4-difluorophenyl)-1-hydroxy-2-(1H-1,2,4-triazol-1-yl)ethyl]cyclopropyl]-2-methyl-1-propanone O-methyl oxime] | 3.13 (≈ 8.59 µM) | 3.13 (≈ 8.59 µM) |  | 
8 | CCCC(=NOCn1cncn1)C1(C(O)(Cn2cncn2)c2ccc(F)cc2F)CC1 (centres unmarked) [Example 46] |  |  | 15.7 | 
9 | COCON=C(C(C)C)C1(C(O)(Cn2cncn2)c2ccc(F)cc2F)CC1 (single isomer, unassigned; (-)) [Example 4, (-)-1-[1-[1-(2,4-difluorophenyl)-1-hydroxy-2-(1H-1,2,4-triazol-1-yl)ethyl]cyclopropyl]-2-methyl-1-propanone O-(methoxymethyl)oxime] |  |  |  | MIC [4]: 12.5 µg/mL (≈ 31.7 µM); MIC [5]: 12.5 µg/mL (≈ 31.7 µM)
10 | COC(C)(C)ON=C(C(C)C)C1(C(O)(Cn2cncn2)c2ccc(F)cc2F)CC1 (centres unmarked) [Example 74, 1-[1-[1-(2,4-difluorophenyl)-1-hydroxy-2-(1H-1,2,4-triazol-1-yl)ethyl]cyclopropyl]-2-methyl-1-propanone O-(1-methoxy-1-methylethyl)oxime] |  |  | 8.9 | 
11 | CCC(=NOCOC)C1(C(O)(Cn2cncn2)c2ccc(F)cc2F)CC1 (centres unmarked) [Example 10] | 6.25 (≈ 16.4 µM) | 12.5 (≈ 32.9 µM) |  | 
12 | COC(C)(OC)ON=C(C(C)C)C1(C(O)(Cn2cncn2)c2ccc(F)cc2F)CC1 (centres unmarked) [Example 73, 1-[1-[1-(2,4-difluorophenyl)-1-hydroxy-2-(1H-1,2,4-triazol-1-yl)ethyl]cyclopropyl]-2-methyl-1-propanone O-(1-dimethoxyethyl)oxime] |  |  | 5.8 | 
13 | C#CCON=C(CC)C1(C(O)(Cn2cncn2)c2ccc(F)cc2F)CC1 (centres unmarked) [Example 51] | 3.13 (≈ 8.36 µM) | 3.13 (≈ 8.36 µM) | 11.3 | 
14 | CCC(=NOCc1ccncc1)C1(C(O)(Cn2cncn2)c2ccc(F)cc2F)CC1 (centres unmarked) [Example 59] | 6.25 (≈ 14.6 µM) | 6.25 (≈ 14.6 µM) | 10.7 | 
15 | CC(=NO)C(C)(C)C(O)(Cn1cncn1)c1ccc(F)cc1F (centres unmarked) [Example 29] | 6.25 (≈ 19.3 µM) | 12.5 (≈ 38.5 µM) |  | 
16 | CCC(=NOC)C(C)(C)C(O)(Cn1cncn1)c1ccc(F)cc1F (centres unmarked) [Example 22] | 1.56 (≈ 4.43 µM) | 3.13 (≈ 8.88 µM) |  | 

Row | SMILES | MIC [4, 9] [µg/mL] | MIC [5, 10] [µg/mL] | ED50 [6] [mg/kg] | further results
17 | CSCON=C(C(C)C)C1(C(O)(Cn2cncn2)c2ccc(F)cc2F)CC1 (centres unmarked) [Example 41] | 12.5 (≈ 30.5 µM) | 12.5 (≈ 30.5 µM) |  | 
18 | CON=C(C)C(C)(C)C(O)(Cn1cncn1)c1ccc(F)cc1F (centres unmarked) [Example 21] | 3.13 (≈ 9.25 µM) | 3.13 (≈ 9.25 µM) |  | 
19 | CON=CC(C)(C)C(O)(Cn1cncn1)c1ccc(Cl)cc1 (racemic) [Bay R 3783, (±)-3-(4-chlorophenyl)-2,2-dimethyl-3-hydroxy-4-(1,2,4-triazole-1-yl)butanol-oxime O-methylether] |  |  |  | hepatotoxicity as a side effect [7]: has hepatotoxicity as a side effect
20 | COC(OC)ON=C(C(C)C)C1(C(O)(Cn2cncn2)c2ccc(F)cc2F)CC1 (centres unmarked) [Example 72, 1-[1-[1-(2,4-difluorophenyl)-1-hydroxy-2-(1H-1,2,4-triazol-1-yl)ethyl]cyclopropyl]-2-methyl-1-propanone O-(dimethoxymethyl)oxime] |  |  | 13.5 | 
21 | CCC(=NOCCBr)C1(C(O)(Cn2cncn2)c2ccc(F)cc2F)CC1 (centres unmarked) [Example 55] | 3.13 (≈ 7.06 µM) | 3.13 (≈ 7.06 µM) | 14.7 | 
22 | CCCCON=C(CC)C1(C(O)(Cn2cncn2)c2ccc(F)cc2F)CC1 (centres unmarked) [Example 56] | 6.25 (≈ 15.9 µM) | 6.25 (≈ 15.9 µM) | 14.7 | 
23 | OC(Cn1cncn1)(Cn1cncn1)c1ccc(F)cc1F [Fluconazole, fluconazole, reference compound] | > 100 | > 100 | 11.7 | ED50 [1]: > 100 mg/kg; antimycotic action in Aspergillus fumigatus infected animal models ([1]; doses up to 100 mg/kg, oral, mice): did not show any antimycotic action; ED50 [8]: 54.4 mg/kg
24 | CC(C)C(=NOCCBr)C1(C(O)(Cn2cncn2)c2ccc(F)cc2F)CC1 (centres unmarked) [Example 44, 1-[1-[1-(2,4-difluorophenyl)-1-hydroxy-2-(1H-1,2,4-triazol-1-yl)ethyl]cyclopropyl]-2-methyl-1-propanone O-(2-bromoethyl)oxime] | 12.5 (≈ 27.3 µM) | 12.5 (≈ 27.3 µM) | 14.6 | 
25 | CCC(=NOCn1cncn1)C1(C(O)(Cn2cncn2)c2ccc(F)cc2F)CC1 (centres unmarked) [Example 58] |  |  | 13.2 | 
26 | COCON=C(C(C)C)C1(C(O)(Cn2cncn2)c2ccc(F)cc2F)CC1 (centres unmarked) [Example 1, 1-[1-[1-(2,4-difluorophenyl)-1-hydroxy-2-(1H-1,2,4-triazol-1-yl)ethyl]cyclopropyl]-2-methyl-1-propanone O-(methoxymethyl)oxime] | 25 (≈ 63.4 µM) | 25 (≈ 63.4 µM) |  | ED50 [1]: 30.3 mg/kg; ED50 [8]: 4.9 mg/kg; evidence for abnormality [2]: no evidence for abnormality
27 | CC(C)C(=NOCC#N)C1(C(O)(Cn2cncn2)c2ccc(F)cc2F)CC1 (centres unmarked) [Example 40] | 12.5 (≈ 32.1 µM) | 12.5 (≈ 32.1 µM) |  | 
28 | COC(C)ON=C(C(C)C)C1(C(O)(Cn2cncn2)c2ccc(F)cc2F)CC1 (centres unmarked) [Example 75, 1-[1-[1-(2,4-difluorophenyl)-1-hydroxy-2-(1H-1,2,4-triazol-1-yl)ethyl]cyclopropyl]-2-methyl-1-propanone O-(1-methoxyethyl)oxime] |  |  | 8.6 | 
29 | CCCON=C(C(C)C)C1(C(O)(Cn2cncn2)c2ccc(F)cc2F)CC1 (centres unmarked) [Example 42] | 25 (≈ 63.7 µM) | 25 (≈ 63.7 µM) |  | 
30 | COCON=C(C1CC1)C1(C(O)(Cn2cncn2)c2ccc(F)cc2F)CC1 (centres unmarked) [Example 15] | 12.5 (≈ 31.9 µM) | 12.5 (≈ 31.9 µM) |  | 
31 | CCC(=NOC)C1(C(O)(Cn2cncn2)c2ccc(F)cc2F)CC1 (centres unmarked) [Example 11] | 3.13 (≈ 8.93 µM) | 3.13 (≈ 8.93 µM) |  | 
